Data published in patent US20020002277A1, “Inhibitors of platelet activation and recruitment” (priority 1998, published 2002).

B1: pIL2LSolCD39: untagged soluble human CD39 with huIL2 leader, 12 mature IL2 residues and three amino acid linker (SEQ ID NO:7) (protein)
chain: MALWIDRMQLLSCIALSLALVTNSAPTSSSTKKTQLTSSTQNKALPENVKYGIVLDAGSSHTSLYIYKWPAEKENDTGVVHQVEECRVKGPGISKFVQKVNEIGIYLTDCMERAREVIPRSQHQETPVYLGATAGMRLLRMESEELADRVLDVVERSLSNYPFDFQGARIITGQEEGAYGWITINYLLGKFSQKTRWFSIVPYETNNQETFGALDLGGASTQVTFVPQNQTIESPDNALQFRLYGKDYNVYTHSFLCYGKDQALWQKLAKDIQVASNEILRDPCFHPGYKKVVNVSDLYKTPCTKRFEMTLPFQQFEIQGIGNYQQCHQSILELFNTSYCPYSQCAFNGIFLPPLQGDFGAFSAFYFVMKFLNLTSEKVSQEKVTEMMKKFCAQPWEEIKTSYAGVKEKYLSEYCFSGTYILSLLLQGYHFTADSWEHIHFIGKIQGSDAGWTLGYMLNLTNMIPAEQPLSTPLSHST
B2: Abciximab: platelet-specific chimeric antibody, glycoprotein IIb/IIIa antagonist (trade name ReoPro) (antibody, chains of the INN, looked up, V domains shown)
VH: EVQLQQSGTVLARPGASVKMSCEASGYTFTNYWMHWVKQRPGQGLEWIGAIYPGNSDTSYIQKFKGKAKLTAVTSTTSVYMELSSLTNEDSAVYYCTLYDGYYVFAYWGQGTLVTVSA
VL: EIVLTQSPVTLSVTPGDSVSLSCRASRDISNNLHWFQQTSHESPRLLIKYASQSMSGIPSRFSGSGSGTDFTLSINSVETEDFGMYFCQQTNSWPYTFGGGTKLEIK
modifications: Fab
B3: S218A mutant: CD39 mutant, Serine218 replaced with alanine (protein, UniProt P49961 1-510, looked up, variant S218A)
Ectonucleoside triphosphate …: MEDTKESNVKTFCSKNILAILGFSSIIAVIALLAVGLTQNKALPENVKYGIVLDAGSSHTSLYIYKWPAEKENDTGVVHQVEECRVKGPGISKFVQKVNEIGIYLTDCMERAREVIPRSQHQETPVYLGATAGMRLLRMESEELADRVLDVVERSLSNYPFDFQGARIITGQEEGAYGWITINYLLGKFSQKTRWFSIVPYETNNQETFGALDLGGAATQVTFVPQNQTIESPDNALQFRLYGKDYNVYTHSFLCYGKDQALWQKLAKDIQVASNEILRDPCFHPGYKKVVNVSDLYKTPCTKRFEMTLPFQQFEIQGIGNYQQCHQSILELFNTSYCPYSQCAFNGIFLPPLQGDFGAFSAFYFVMKFLNLTSEKVSQEKVTEMMKKFCAQPWEEIKTSYAGVKEKYLSEYCFSGTYILSLLLQGYHFTADSWEHIHFIGKIQGSDAGWTLGYMLNLTNMIPAEQPLSTPLSHSTYVFLMVLFSLVLFTVAIIGLLIFHKPSYFWKDMV
B4: pIL2LTrim1: huIL2 leader joined to solCD39 with an intervening alanine residue (SEQ ID NO:27) (protein)
chain: MALWIDRMQLLSCIALSLALVTNSATQNKALPENVKYGIVLDAGSSHTSLYIYKWPAEKENDTGVVHQVEECRVKGPGISKFVQKVNEIGIYLTDCMERAREVIPRSQHQETPVYLGATAGMRLLRMESEELADRVLDVVERSLSNYPFDFQGARIITGQEEGAYGWITINYLLGKFSQKTRWFSIVPYETNNQETFGALDLGGASTQVTFVPQNQTIESPDNALQFRLYGKDYNVYTHSFLCYGKDQALWQKLAKDIQVASNEILRDPCFHPGYKKVVNVSDLYKTPCTKRFEMTLPFQQFEIQGIGNYQQCHQSILELFNTSYCPYSQCAFNGIFLPPLQGDFGAFSAFYFVMKFLNLTSEKVSQEKVTEMMKKFCAQPWEEIKTSYAGVKEKYLSEYCFSGTYILSLLLQGYHFTADSWEHIHFIGKIQGSDAGWTLGYMLNLTNMIPAEQPLSTPLSHST
B5: pIL2LTrim2: huIL2 leader with an intervening Ala-Ser-Ser linker preceding solCD39 (protein)
chain: TQNKALPENVKYGIVLDAGSSHTSLYIYKWPAEKENDTGVVHQVEECRVKGPGISKFVQKVNEIGIYLTDCMERAREVIPRSQHQETPVYLGATAGMRLLRMESEELADRVLDVVERSLSNYPFDFQGARIITGQEEGAYGWITINYLLGKFSQKTRWFSIVPYETNNQETFGALDLGGASTQVTFVPQNQTIESPDNALQFRLYGKDYNVYTHSFLCYGKDQALWQKLAKDIQVASNEILRDPCFHPGYKKVVNVSDLYKTPCTKRFEMTLPFQQFEIQGIGNYQQCHQSILELFNTSYCPYSQCAFNGIFLPPLQGDFGAFSAFYFVMKFLNLTSEKVSQEKVTEMMKKFCAQPWEEIKTSYAGVKEKYLSEYCFSGTYILSLLLQGYHFTADSWEHIHFIGKIQGSDAGWTLGYMLNLTNMIPAEQPLSTPLSHST
modifications: left off: small tags and cut ends

Columns and labels:
murine platelets = assay: Ex vivo aggregation of murine platelets after treatment; assay type: in vivo, C57BL/6J mice; details: PRP 1 hour after solCD39 4 mg/kg or aspirin 5 mg/kg
Procedure: C57BL/6J mice (6-8 wk) were obtained from Jackson Laboratories (Bar Harbor, Me.). […] 80 μL of 3.8% trisodium citrate was added to each mL of blood. […] The PRP contained 400-700×10^3 platelets per μL. All experiments were completed within 2 hours of blood collection. PRP (200 μL) was preincubated, for 3 min. at 37° C., with 100 μL Tris-buffered saline buffer ([…], 5 mM glucose, pH 7.4) in an aggregometer cuvette (Lumiaggregometer; Chrono-Log, Havertown, Pa.), and the platelet agonists ADP, collagen, or sodium arachidonate were added at the final concentrations indicated.

platelets = assay: Ex vivo additive inhibition of platelet aggregation in platelet rich plasma from patients; assay type: cell-based, human; details: PRP from patients receiving the drug (clopidogrel, ticlopidine, abciximab groups also received aspirin)
Procedure: Each group consisted of three to six patients. […] SoICD39 (10 μg/ml or 100 μg/ml) was then added and the additional inhibition of platelet activation (over baseline, in response to the platelet agonists) was measured in each of the five groups.

[1] = Murine model of stroke (middle cerebral artery occlusion); assay type: in vivo, C57BL/6J mice
Procedure: Anesthetized mice were maintained at 37±2° C. during and for 90 min following surgery. A midline neck incision was made and the right carotid artery exposed. Middle cerebral artery occlusion was accomplished by advancing a 13-mm heat-blunt tipped 6-0 nylon suture via an arteriotomy in the external carotid stump. The external carotid artery was cauterized to secure hemostasis, and arterial flow re-established. […] Surgical staples were used for wound closure.

[2] = Phosphate release assay for ATPase activity; assay type: biochemical; details: for CPM × 10^3 (net counts), ATPase activity in CM: 5 days (Table 3); for Activity (pmol ATP/min/μg) × 10^3: specific activity based on ELISA concentration, COS-1 1x supernatant, 10 cm plates, 5 days
Procedure: This example describes an ATPase assay that may be used to track enzyme activity. Samples (approximately 100 μl of either concentrated CM or purified polypeptide) are combined with 20 μl of 10X assay buffer (200 mM HEPES, 1.2 M NaCl, 50 mM KCl, 15 mM CaCl2, 15 mM MgCl2 and 3 mM ATP) and sterile water is added to a final volume of 200 μl. Radiolabeled ATP (0.8 μCi γ [^32P] ATP; Amersham, Arlington Heights, Ill.) is added and the mixture incubated for 20 minutes at 37° C. Stop mix (0.5 ml of 20% activated charcoal/1 M HCl) is added and the reaction is placed on ice for 10 minutes. After centrifugation (14K rpm for 10 minutes), the supernatant is assayed for free ^32P using a scintillation counter. Data are expressed as raw counts or net counts, or as picomoles of ATP degraded per minute.
The transfections were repeated and the CM (10, 20 and 30 μL, unconcentrated) was assayed essentially as described in Example 7. […] ATPase levels in CM from COS-1 cells transfected with pIL2LFlagSolCD39 increased with time in culture over at least 4 days post-transfection.
To determine whether activity was affected by removal of the N-terminal FLAG® tag, COS-1 cells were transfected with pIL2LFlagSolCD39 and pIL2LSolCD39 and supernatants (sups) were harvested after 5 days. Samples of 10, 20 and 30 μL of 1x sups were assayed for ATPase activity as described in Example 7.
The expression of Trim1 and Trim2 constructs was analyzed in COS-1 cells cultured in 10 cm plates. After 5 days of incubation, 1x supernatants were examined via ELISA (using anti-CD39) and the phosphate-release assay described in Example 7. […] Expression levels, however, appeared to be reduced 3-4 fold.

[3] = Enzymatic (ATPase and ADPase) activity of site-directed CD39 mutants; assay type: biochemical; details: alanine replacement mutant
Procedure: Mutants were assayed for enzymatic (ATPase and ADPase) and platelet inhibitory (dose-dependent inhibition of platelet aggregation) activities. For one series of mutants, residues within the conserved apyrase regions were replaced with alanine.

Activity (pmol ATP/min/μg) × 10^3 [2] [pmol ATP/min/μg × 10^3] | Molecule | Platelet aggregation, baseline (platelets; agonist ADP) [arbitrary units] | Platelet aggregation, baseline (platelets; agonist Collagen) [arbitrary units] | Platelet aggregation, baseline (platelets; agonist TRAP) [arbitrary units] | further results
– | CC(=O)Oc1ccccc1C(=O)O [aspirin, acetylsalicylic acid] | 69 ± 5 | 62 ± 8 | 66 ± 6 | ex vivo platelet aggregation, collagen (murine platelets; 2.5 μg/ml collagen): strongly aggregated; ex vivo platelet aggregation, ADP (murine platelets; 10 μM ADP): strongly aggregated; ex vivo platelet aggregation, arachidonate (murine platelets; 0.1 mM sodium arachidonate): only blocked platelet reactivity to arachidonate; postischemic cerebral blood flow ([1]; 24 hours after stroke induction): no improvement was seen in postischemic cerebral blood flow; intracerebral hemorrhage following stroke ([1]; measured spectrophotometrically, any dose of solCD39 tested, aspirin 5 mg/kg): increased intracerebral hemorrhage; cerebral infarct volume ([1]; preoperative administration, solCD39 4 & 8 mg/kg, aspirin 5 mg/kg): tendency to decrease cerebral infarct volume, although this effect was not statistically significant
– | COC(=O)[C@H](c1ccccc1Cl)N1CCc2sccc2C1 [Clopidogrel, clopidogrel] | 58 ± 6 | 57 ± 9 | 51 ± 2 | –
5.67 | B1 | – | – | – | CPM × 10^3 (net counts), ATPase activity in CM ([2]; 10 μL 1x COS-1 supernatant): 20.1 CPM × 10^3; CPM × 10^3 (net counts), ATPase activity in CM ([2]; 20 μL 1x COS-1 supernatant): 36.0 CPM × 10^3; CPM × 10^3 (net counts), ATPase activity in CM ([2]; 30 μL 1x COS-1 supernatant): 51.0 CPM × 10^3
– | B2 | 0 ± 0 | 0 ± 0 | 46 ± 6 | –
– | B3 | – | – | – | ADPase activity retained [3]: less than 10%
8.38 | B4 | – | – | – | –
6.67 | B5 | – | – | – | –
